*1 amine or outer side, *2 acyl side, *3 side chain or, on linkers, in order; H or OH if unused. Where a SMILES comes first, the peptide text is derived from it. Bridges are numbered along the chain shown (N, C = ends). [ ]: non-standard residue; d: D form. The star is where a group is joined. ξ: configuration not given here. X5 = O=C([C@H](CCC[C@@H]1CC(F)(F)CN1)N[*:1])[*:2]; CH2(1,2,4-oxadiazolon-3-yl) = O=c1[nH]c(C*)no1; NMePhe(3-Cl) = CN[C@@H](Cc1cccc(Cl)c1)C(=O)O; X13 = O=C(C1CCCCC1)[C@H](CC(=O)[*:2])N[*:1]; Pro(4,4-F2)ψ(CH2) = FC1(F)CN[C@H](C*)C1; Ethyl(2-morpholino) = C1CN(CC*)CCO1; Propyl(2,2-Me2,3-OH) = CC(C)(CO)C*; NMeF = CN[C@@H](Cc1ccccc1)C(=O)O; NMeGABA = CN(CCCC(=O)[*:2])[*:1]; CH2CH(OH)CF3 = OC(C*)C(F)(F)F; NMeL = CN[C@@H](CC(C)C)C(=O)O; Butyl(3R-OH) = C[C@@H](O)CC*; NMeV = CN[C@H](C(=O)O)C(C)C; NMeAbu = CC[C@H](NC)C(=O)O; NMeA = CN[C@@H](C)C(=O)O; Piperidide = C1CCN(*)CC1; dAbu = CC[C@@H](N)C(=O)O; NBuGly = CCCCNCC(=O)O; Propyl(3-OH) = OCCC*; ξV = CC(C)C(N)C(=O)O; ξS = NC(CO)C(=O)O; Sar = CNCC(=O)O; tBu = CC(C)(C)*
Experiments:
[1] = test system: Caco-2; conditions: human
[2] = Membrane permeability test of cyclic peptides (Caco-2, modified/improved method of WO 2018/124162); conditions: human
[3] = Caco-2, Caco-2 (membrane permeability), Table 10, cyclic peptides containing Ser(S-4-F2-Pyrro-Me) (G) or Nva(2-R-4-F2-Pyrro) (H)
[4] = Caco-2, Caco-2 (cm/sec), membrane permeability of cyclic peptides, Caco-2
[5] = Caco-2, Caco-2 (membrane permeability), Table 6, cyclic peptides containing Ser(1-CF3-EtOH) (C) or Hnl(7-F3-6-OH) (D)

## CCCCN1CC(=O)N(C)[C@@H](CC(C)C)C(=O)N[C@@H](COC(C)(C)C)C(=O)N(C)[C@@H](Cc2ccccc2)C(=O)N(C)[C@@H](CC(C)C)C(=O)N[C@H](C(=O)N2CCCCC2)CC(=O)N[C@H](C(C)C)C(=O)N(C)[C@@H](Cc2ccccc2)C(=O)N[C@@H](COCC(O)C(F)(F)F)C(=O)N(C)[C@@H](CC(C)C)C(=O)N[C@@H]([C@@H](C)O)C1=O (stereo partly drawn) [Compound C01] ([dV][NMeF]S(CH2CH(OH)CF3)[NMeL]T[NBuGly][NMeL]S(tBu)[NMeF][NMeL]D-Piperidide; lactam N-11)
[1]
  Caco-2 (membrane permeability): 0.15 ×10⁻⁶ cm/s

## CC(C)C[C@@H]1NC(=O)[C@H](CC(C)C)N(C)C(=O)[C@H](C)N(C)C(=O)C[C@@H](C(=O)N2CCCCC2)NC(=O)[C@H](CC(C)C)N(C)C(=O)[C@H](Cc2ccccc2)N(C)C(=O)[C@H](Cc2ccccc2)N(C)C(=O)[C@H]([C@@H](C)O)NC(=O)[C@H](Cc2ccccc2)N(C)C1=O [pd211] ([NMeA][NMeL]L[NMeF]T[NMeF][NMeF][NMeL]D-Piperidide; lactam N-9)
[1]
  Caco-2: 1.4e-05 cm/s

## CCCCN1CC(=O)N(C)[C@@H](CC(C)C)C(=O)N[C@@H](COC(C)(C)C)C(=O)N(C)[C@@H](Cc2ccccc2)C(=O)N(C)[C@@H](CC(C)C)C(=O)N[C@H](C(=O)N2CCCCC2)CC(=O)N[C@H](C(C)C)C(=O)N(C)[C@@H](Cc2ccccc2)C(=O)N[C@@H](COCC(O)C(F)(F)F)C(=O)N(C)[C@@H](CC(C)C)C(=O)N[C@@H]([C@@H](C)O)C1=O (stereo partly drawn) [Compound D01] ([dV][NMeF]S(CH2CH(OH)CF3)[NMeL]T[NBuGly][NMeL]S(tBu)[NMeF][NMeL]D-Piperidide; lactam N-11)
[1]
  Caco-2 (membrane permeability): 0.07 ×10⁻⁶ cm/s

## CCCCN1CC(=O)N(C)[C@@H](CC(C)C)C(=O)N[C@H](C(=O)N2CCCCC2)CC(=O)N(C)[C@@H](C)C(=O)N[C@@H](CCC[C@@H]2CC(F)(F)CN2)C(=O)N(C)[C@@H](CC(C)C)C(=O)N(C)[C@@H](C)C(=O)N[C@@H](C(C)C)C(=O)N(C)[C@@H](Cc2ccccc2)C(=O)N(C)[C@@H](CC(C)C)C(=O)N[C@@H]([C@@H](C)O)C1=O [Compound H05] ([NMeA][X5][NMeL][NMeA]V[NMeF][NMeL]T[NBuGly][NMeL]D-Piperidide; lactam N-11)
[2]; [3]
  Papp: 1.2 ×10⁻⁶ cm/s

## CC[C@H](C)[C@@H]1NC(=O)[C@H](CC(C)C)N(C)C(=O)CCCN(C)C(=O)C[C@@H](C(=O)N2CCCCC2)NC(=O)[C@H](CC(C)C)N(C)C(=O)[C@H](CC(C)C)N(C)C(=O)[C@H](COCCN2CCOCC2)NC(=O)[C@H](CC(C)C)N(C)C(=O)[C@H](COC(C)(C)C)NC(=O)[C@H](CC)N(C)C(=O)[C@H](Cc2ccccc2)N(C)C1=O [pd485] ([NMeGABA][NMeL]I[NMeF][NMeAbu]S(tBu)[NMeL]S(Ethyl(2-morpholino))[NMeL][NMeL]D-Piperidide; lactam N-11)
[2]; Caco-2, Caco-2, Papp, membrane permeability, cyclic peptides comprising MeAbu(pip-4-F2), MeAbu(Mor), Ser(Et-2-Mor), MeAbu(pip-3-F2) or Abu(5-Oxo-Odz) (Table 29)
  Papp: 1.2 ×10⁻⁶ cm/s

## CCCCN1CC(=O)N(C)[C@@H](CC(C)C)C(=O)N[C@@H](COC(C)(C)C)C(=O)N(C)[C@@H](Cc2ccccc2)C(=O)N(C)[C@@H](CC)C(=O)N[C@H](C(=O)N2CCCCC2)CC(=O)N[C@H](C)C(=O)N(C)[C@@H](CC)C(=O)N[C@@H](C(C)C)C(=O)N(C)[C@@H](CC(C)C)C(=O)N[C@@H](COC[C@@H]2CC(F)(F)CN2)C1=O [Compound G08] ([dA][NMeAbu]V[NMeL]S(Pro(4,4-F2)ψ(CH2))[NBuGly][NMeL]S(tBu)[NMeF][NMeAbu]D-Piperidide; lactam N-11)
[2]; [3]
  Papp: 1.3 ×10⁻⁶ cm/s

## CCCCN1CC(=O)N(C)[C@@H](CC(C)C)C(=O)N[C@@H](COC[C@@H]2CC(F)(F)CN2)C(=O)N(C)[C@@H](CC(C)C)C(=O)N(C)[C@@H](CC(C)C)C(=O)N[C@H](C(=O)N2CCCCC2)CC(=O)N[C@H](C(C)C)C(=O)N(C)[C@@H](Cc2ccccc2)C(=O)N[C@@H](CC(C)C)C(=O)N(C)[C@@H](CC)C(=O)N[C@@H]([C@@H](C)O)C1=O [Compound G01] ([dV][NMeF]L[NMeAbu]T[NBuGly][NMeL]S(Pro(4,4-F2)ψ(CH2))[NMeL][NMeL]D-Piperidide; lactam N-11)
[2]; [3]
  Papp: 0.53 ×10⁻⁶ cm/s

## CC(C)C[C@@H]1NC(=O)[C@H](Cc2ccccc2)N(C)C(=O)[C@H](CC(C)C)N(C)C(=O)[C@H](COCCCO)NC(=O)[C@H](CC(C)C)N(C)C(=O)C[C@@H](C(=O)N2CCCCC2)NC(=O)[C@H](CC(C)C)N(C)C(=O)CN(C)C(=O)[C@H]([C@@H](C)O)NC(=O)[C@H](CC(C)C)N(C)C(=O)[C@H](Cc2cccc(Cl)c2)N(C)C1=O [AP97] ([NMeL]S(Propyl(3-OH))[NMeL][NMeF]L[NMePhe(3-Cl)][NMeL]T[Sar][NMeL]D-Piperidide; lactam N-11)
[2]; [4]
  Papp: 0.21 ×10⁻⁶ cm/s

## CC(C)C[C@H]1C(=O)N[C@@H](COC(C)(C)C)C(=O)N(C)[C@@H](Cc2ccccc2)C(=O)N(C)[C@@H](CC(C)C)C(=O)N[C@H](C(=O)C2CCCCC2)CC(=O)N[C@H](C(C)C)C(=O)N(C)[C@@H](Cc2ccccc2)C(=O)N[C@@H](COCC(O)C(F)(F)F)C(=O)N(C)[C@@H](CC(C)C)C(=O)N[C@@H](C(C)C)C(=O)N(C)CC(=O)N1C (some centres unmarked) [Compound D11] (cyclo([NMeF][NMeL][X13][dV][NMeF]S(CH2CH(OH)CF3)[NMeL]V[Sar][NMeL]S(tBu)))
[2]; [5]
  Papp: 0.21 ×10⁻⁶ cm/s

## CC[C@H](C)[C@@H]1NC(=O)[C@H](CC(C)C)N(C)C(=O)CCCN(C)C(=O)C[C@@H](C(=O)N2CCCCC2)NC(=O)[C@H](CC(C)C)N(C)C(=O)[C@H](CC(C)C)N(C)C(=O)[C@H]([C@@H](C)O)NC(=O)[C@H](CC(C)C)N(C)C(=O)C(COCc2noc(=O)[nH]2)NC(=O)[C@H](CC(C)C)N(C)C(=O)[C@H](Cc2cccc(Cl)c2)N(C)C1=O (stereo partly drawn) [AP46] ([NMeGABA][NMeL]I[NMePhe(3-Cl)][NMeL][ξS](CH2(1,2,4-oxadiazolon-3-yl))[NMeL]T[NMeL][NMeL]D-Piperidide; lactam N-11)
[2]; [4]
  Papp: 0.22 ×10⁻⁶ cm/s

## CCCCN1CC(=O)N(C)[C@@H](Cc2ccccc2)C(=O)N(C)[C@@H](CC(C)C)C(=O)N[C@@H](CCC[C@@H]2CC(F)(F)CN2)C(=O)N(C)[C@@H](CC(C)C)C(=O)N[C@H](C(=O)N2CCCCC2)CC(=O)N(C)CC(=O)N(C)[C@@H](CC(C)C)C(=O)N[C@@H](C(C)C)C(=O)N(C)[C@@H](CC(C)C)C(=O)N[C@@H]([C@@H](C)O)C1=O [Compound H07] ([Sar][NMeL]V[NMeL]T[NBuGly][NMeF][NMeL][X5][NMeL]D-Piperidide; lactam N-11)
[2]; [3]
  Papp: 0.16 ×10⁻⁶ cm/s

## CCCCN1CC(=O)N(C)[C@@H](CC(C)C)C(=O)N[C@@H](CCC[C@@H]2CC(F)(F)CN2)C(=O)N(C)[C@@H](CC(C)C)C(=O)N(C)[C@@H](CC(C)C)C(=O)N[C@H](C(=O)N2CCCCC2)CC(=O)N[C@H](CC)C(=O)N(C)[C@@H](Cc2ccccc2)C(=O)N[C@@H](CC(C)C)C(=O)N(C)[C@@H](CC)C(=O)N[C@@H]([C@@H](C)O)C1=O [Compound H01] ([dAbu][NMeF]L[NMeAbu]T[NBuGly][NMeL][X5][NMeL][NMeL]D-Piperidide; lactam N-11)
[2]; [3]
  Papp: 0.25 ×10⁻⁶ cm/s

## CCCCN1CC(=O)N(C)[C@@H](CC)C(=O)N[C@@H](COC[C@@H]2CC(F)(F)CN2)C(=O)N(C)[C@@H](Cc2ccccc2)C(=O)N(C)[C@@H](CC)C(=O)N[C@H](C(=O)N2CCCCC2)CC(=O)N[C@H](CC(C)C)C(=O)N(C)[C@@H](CC(C)C)C(=O)N[C@@H](C(C)C)C(=O)N(C)[C@@H](CC(C)C)C(=O)N[C@@H]([C@@H](C)O)C1=O [Compound G02] ([dL][NMeL]V[NMeL]T[NBuGly][NMeAbu]S(Pro(4,4-F2)ψ(CH2))[NMeF][NMeAbu]D-Piperidide; lactam N-11)
[2]; [3]
  Papp: 0.4 ×10⁻⁶ cm/s

## CC[C@H](C)[C@@H]1NC(=O)[C@H](CC(C)C)N(C)C(=O)[C@H](COC(C)(C)C)NC(=O)[C@H](Cc2ccccc2)N(C)C(=O)[C@H](Cc2ccccc2)N(C)C(=O)[C@H](COCC(O)C(F)(F)F)NC(=O)[C@H](CC)N(C)C(=O)CCCN(C)C(=O)C[C@@H](C(=O)N2CCCCC2)NC(=O)[C@H](CC(C)C)N(C)C(=O)[C@H](CC(C)C)N(C)C1=O (stereo partly drawn) [Compound C13] ([NMeGABA][NMeAbu]S(CH2CH(OH)CF3)[NMeF][NMeF]S(tBu)[NMeL]I[NMeL][NMeL]D-Piperidide; lactam N-11)
[2]; [5]
  Papp: 0.26 ×10⁻⁶ cm/s

## CC(C)C[C@@H]1NC(=O)[C@H](Cc2ccccc2)N(C)C(=O)[C@H](Cc2ccccc2)N(C)C(=O)[C@H](COCC(C)(C)CO)NC(=O)[C@H](CC(C)C)N(C)C(=O)CCCN(C)C(=O)C[C@@H](C(=O)N2CCCCC2)NC(=O)[C@H](CC(C)C)N(C)C(=O)[C@H](CC(C)C)N(C)C(=O)[C@H]([C@@H](C)O)NC(=O)[C@H](CC(C)C)N(C)C1=O [AP119] ([NMeGABA][NMeL]S(Propyl(2,2-Me2,3-OH))[NMeF][NMeF]L[NMeL]T[NMeL][NMeL]D-Piperidide; lactam N-11)
[2]; [4]
  Papp: 0.34 ×10⁻⁶ cm/s

## CC(C)C[C@H]1C(=O)N[C@@H](COC(C)(C)C)C(=O)N(C)[C@@H](Cc2ccccc2)C(=O)N(C)[C@@H](CC(C)C)C(=O)N[C@H](C(=O)N2CCCCC2)CC(=O)N[C@H](C(C)C)C(=O)N(C)[C@@H](Cc2ccccc2)C(=O)N[C@@H](COCC(O)C(F)(F)F)C(=O)N(C)[C@@H](CC(C)C)C(=O)NC(C(C)C)C(=O)N(C)CC(=O)N1C (stereo partly drawn) [Compound C11] ([dV][NMeF]S(CH2CH(OH)CF3)[NMeL][ξV][Sar][NMeL]S(tBu)[NMeF][NMeL]D-Piperidide; lactam N-11)
[2]; [5]
  Papp: 0.23 ×10⁻⁶ cm/s

## CCCCN1CC(=O)N(C)[C@@H](CC(C)C)C(=O)N[C@H](C(=O)N2CCCCC2)CC(=O)N(C)[C@@H](C(C)C)C(=O)N[C@@H](CC(C)C)C(=O)N(C)[C@@H](CC(C)C)C(=O)N(C)[C@@H](Cc2ccccc2)C(=O)N[C@@H](COCC[C@@H](C)O)C(=O)N(C)[C@@H](Cc2ccccc2)C(=O)N(C)[C@@H](C(C)C)C(=O)N[C@@H]([C@@H](C)O)C1=O [AP116] ([NMeV]L[NMeL][NMeF]S(Butyl(3R-OH))[NMeF][NMeV]T[NBuGly][NMeL]D-Piperidide; lactam N-11)
[2]; [4]
  Papp: 0.89 ×10⁻⁶ cm/s

Source: patent US20230096766A1, “AMINO ACID HAVING FUNCTIONAL GROUP CAPABLE OF INTERMOLECULAR HYDROGEN BONDING, PEPTIDE COMPOUND CONTAINING SAME AND METHOD FOR PRODUCTION THEREOF” (Chugai Seiyaku Kabushiki Kaisha, priority 2018, published 2023)
